Test results reported in PMC2921948 (Clinical cancer research : an official journal of the …, 2010).
Read-outs that look alike come from different tables or passages of the source.

Experiments:
[1] = molecular target: T1, human serum albumin (HSA) (Homo sapiens, UniProt P02768); assay: fluorescence polarization displacement of dansyl sarcosine; assay type: binding
[2] = molecular target: T1, human serum albumin (HSA); assay: as above; assay type: binding; remark: listed apart in the source

T1 sequence (P02768 25-609): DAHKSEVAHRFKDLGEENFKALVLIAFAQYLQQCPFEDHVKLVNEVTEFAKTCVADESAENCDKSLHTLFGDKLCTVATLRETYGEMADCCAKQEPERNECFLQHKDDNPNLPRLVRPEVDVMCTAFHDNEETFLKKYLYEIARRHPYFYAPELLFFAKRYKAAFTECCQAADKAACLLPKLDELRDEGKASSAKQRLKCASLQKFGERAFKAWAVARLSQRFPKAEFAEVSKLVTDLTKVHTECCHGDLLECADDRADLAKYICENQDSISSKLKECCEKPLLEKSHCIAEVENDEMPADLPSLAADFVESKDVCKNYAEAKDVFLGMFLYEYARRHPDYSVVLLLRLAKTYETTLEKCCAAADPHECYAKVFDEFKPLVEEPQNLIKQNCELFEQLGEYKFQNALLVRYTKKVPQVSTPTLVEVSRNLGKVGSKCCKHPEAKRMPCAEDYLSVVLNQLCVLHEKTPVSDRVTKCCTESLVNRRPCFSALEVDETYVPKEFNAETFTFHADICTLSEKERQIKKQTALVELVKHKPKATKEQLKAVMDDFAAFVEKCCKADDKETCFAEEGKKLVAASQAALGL

Row | IC50 [1] [µM] | IC50 [2] [µM] | Compound
1 | 37 | – | CC1(C)CCC(c2ccc(Cl)cc2)=C(CN2CCN(c3ccc(C(=O)NS(=O)(=O)c4ccc(N[C@H](CCN5CCOCC5)CSc5ccccc5)c(S(=O)(=O)C(F)(F)F)c4)cc3)CC2)C1 [ABT-263]
2 | – | 711 | CN(C)CC[C@H](CSc1ccccc1)Nc1ccc(S(=O)(=O)NC(=O)c2ccc(N3CCN(Cc4ccccc4-c4ccc(Cl)cc4)CC3)cc2)cc1[N+](=O)[O-] [ABT-737]
